How the values were obtained:
Test in all cases: Erlotinib-specific hepatotoxicity, in vitro three-dimensional hepatocyte model, PrestoBlue cell viability
Format in all cases: cell-based, human
[1] = tested on: first hepatocyte model line; conditions: co-cultured 48 hours, 0.24-250 μMol/L, FIG. 6a
Source text: (§1) The in vitro three-dimensional hepatocyte model is constructed by using the hepatic progenitor cell-like cell bank. The method for constructing the in vitro three-dimensional hepatocyte model is stated in the “Expansion and Differentiation of Human Hepatocyte-derived Liver Progenitor-like Cells and Their Use for the Study of Hepatotropic Pathogens” published in Volume 29, Issue 1, 2018, Cell Research, and is not repeated here. In the process of constructing the in vitro three-dimensional hepatocyte model, a first hepatocyte model line, a second hepatocyte model line, a third hepatocyte model line, a fourth hepatocyte model line, a fifth hepatocyte model line and a sixth hepatocyte model line are obtained by the first immortal hepatic progenitor cell-like cell line, the second immortal hepatic progenitor cell-like cell line, the third immortal hepatic progenitor cell-like cell line, the fourth immortal hepatic progenitor cell-like cell line, the fifth immortal hepatic progenitor cell-like cell line and the sixth immortal hepatic progenitor cell-like cell line, respectively.
(§2) In the embodiment of the present invention, the specific toxic drug Erlotinib is used to characterize the specific hepatotoxicity of the in vitro three-dimensional hepatocyte model.
(§3) Preparing a Erlotinib solutions with concentrations of 250 μMol/L, 62.5 μMol/L, 15.625 μMol/L, 3.9 μMol/L, 0.97 μMol/L, 0.24 μMol/L by dimethyl sulfoxide (DMSO), and using DMSO as a blank reference.
(§4) Each hepatocyte model line in the in vitro three-dimensional hepatocyte model is co-cultured with different concentrations of Erlotinib aqueous solution for 48 hours.
(§5) After the co-culture is completed, the PrestoBlue™ cell viability testing reagent produced by Life Technologies is used to characterize the Erlotinib-specific hepatotoxicity in each culture obtained after the co-culture, respectively. The specific methods for the co-culture and the characterization of the Erlotinib-specific hepatotoxicity are common methods known by those skilled in the art and will not be repeated here.

[2] = tested on: third hepatocyte model line; conditions: co-cultured 48 hours, 0.24-250 μMol/L, FIG. 6c
Source text: as §1, §2, §3, §4, §5

[3] = tested on: fourth hepatocyte model line; conditions: co-cultured 48 hours, 0.24-250 μMol/L, FIG. 6d
Source text: as §1, §2, §3, §4, §5

[4] = tested on: fifth hepatocyte model line; conditions: co-cultured 48 hours, 0.24-250 μMol/L, FIG. 6e
Source text: as §1, §2, §3, §4, §5

[5] = tested on: second hepatocyte model line; conditions: co-cultured 48 hours, 0.24-250 μMol/L, FIG. 6b
Source text: as §1, §2, §3, §4, §5

[6] = tested on: sixth hepatocyte model line; conditions: co-cultured 48 hours, 0.24-250 μMol/L, FIG. 6f
Source text: as §1, §2, §3, §4, §5

SMILES: C#Cc1cccc(Nc2ncnc3cc(OCCOC)c(OCCOC)cc23)c1 [Erlotinib]
- cell viability with the increase in the concentration of Erlotinib solution [1]: basically does not significant changed
- cell viability with the increase in the concentration of Erlotinib solution [2]: significant downward trend
- cell viability with the increase in the concentration of Erlotinib solution [3]: significant downward trend
- cell viability with the increase in the concentration of Erlotinib solution [4]: basically does not significant changed
- cell viability with the increase in the concentration of Erlotinib solution [5]: basically does not significant changed
- cell viability with the increase in the concentration of Erlotinib solution [6]: basically does not significant changed

Source: patent US12351828B2, “Method for constructing hepatic progenitor cell-like cell bank, cell lines prepared therefrom and application thereof” (SHANGHAI CELLIVER BIOTECHNOLOGY CO., LTD., priority 2019, dated 2025)
